Assay results as given in patent US10351525B2, “Beta lactamase inhibitors” (Oxford University Innovation Limited, priority 2014, dated 2019).

How the values were obtained:
P. aeruginosa GR57 [1] = experiment: MEM/ML302F treatment assay in infected G. mellonella larvae; type: in vivo; conditions: PA GR57 infection; 96 hrs; MEM 0.6 mg/kg, ML302F 4.8 mg/kg, alone or combined (1:8)
Procedure: (§1) The activity of MEM and ML302F alone and in combination were assessed using 16 G. mellonella larva as described by M. Hornsey and D. W. Wareham (Antimicrob. Agents Chemother., 2011, 55(7), 3534-3537). Larvae were inoculated with P. aeruginosa GR57, E. coli EC98 and K. pneumoniae KP120. In combination therapies, a fixed ratio (1:8) of MEM:ML302F containing 0.6 mg/Kg of MEM8 and 4.8 mg/Kg of ML302F was administered in 10 μL injections to infected larvae. PBS injections (10 μL) were used as both controls for no antimicrobial therapy and inoculation injury. Larvae were scored for survival over 96 hrs and kill curves analysed by the log-rank test for trend. Relative risk (RR) of survival between the different treatment arms was calculated using Fisher's exact test with, two-tailed P-values of <0.05 considered statistically significant.

E. coli EC98 = experiment: as above; type: in vivo; conditions: EC 98 infection; 96 hrs; MEM 0.6 mg/kg, ML302F 4.8 mg/kg, alone or combined (1:8)
Procedure: as §1

K. pneumoniae KP120 = experiment: as above; type: in vivo; conditions: KP 120 infection; 96 hrs; MEM 0.6 mg/kg, ML302F 4.8 mg/kg, alone or combined (1:8)
Procedure: as §1

K. pneumoniae GR54 = experiment: MIC of MEM with and without ML302F (1:8), VIM-1 producer; type: cell-based; conditions: Klebsiella pneumoniae
Procedure: (§2) In a further study, antimicrobial activities of MEM and ML302F alone and in combination were assessed in-vitro against 31 VIM-producing clinical isolates.

K. pneumoniae 177 = experiment: as above; type: cell-based; conditions: Klebsiella pneumoniae; K. pneumoniae 177 (VIM-1); MEM alone or with ML302F (1:8)
Procedure: as §2

P. stuartii 70 = experiment: as above; type: cell-based; conditions: Providencia stuartii; P. stuartii 70 (VIM-1); MEM alone or with ML302F (1:8)
Procedure: as §2

P.. stuartii 67 = experiment: as above; type: cell-based; conditions: Providencia stuartii; P. stuartii 67 (VIM-1); MEM alone or with ML302F (1:8)
Procedure: as §2

K. pneumoniae 128 = experiment: MIC of MEM with and without ML302F (1:8), VIM-4 producer; type: cell-based; conditions: Klebsiella pneumoniae; K. pneumoniae 128 (VIM-4); MEM alone or with ML302F (1:8)
Procedure: as §2

E. cloacae 102 = experiment: as above; type: cell-based; conditions: Enterobacter cloacae; E. cloacae 102 (VIM-4); MEM alone or with ML302F (1:8)
Procedure: as §2

P. aeruginosa 6 (14) = experiment: MIC of MEM with and without ML302F (1:8), VIM-2 producer; type: cell-based; conditions: Pseudomonas aeruginosa
Procedure: as §2

P. aeruginosa 13 (14) = experiment: as above; type: cell-based; conditions: Pseudomonas aeruginosa; P. aeruginosa 13 (14) (VIM-2); MEM alone or with ML302F (1:8)
Procedure: as §2

P. aeruginosa GR62 = experiment: as above; type: cell-based; conditions: Pseudomonas aeruginosa; P. aeruginosa GR62 (VIM-2); MEM alone or with ML302F (1:8)
Procedure: as §2

P. aeruginosa 30 = experiment: as above; type: cell-based; conditions: Pseudomonas aeruginosa; P. aeruginosa 30 (VIM-2); MEM alone or with ML302F (1:8)
Procedure: as §2

P. aeruginosa 12 (14) = experiment: as above; type: cell-based; conditions: Pseudomonas aeruginosa
Procedure: as §2

P. aeruginosa 11 (13) = experiment: as above; type: cell-based; conditions: Pseudomonas aeruginosa; P. aeruginosa 11 (13) (VIM-2); MEM alone or with ML302F (1:8)
Procedure: as §2

P. aeruginosa 16 (14) = experiment: as above; type: cell-based; conditions: Pseudomonas aeruginosa; P. aeruginosa 16 (14) (VIM-2); MEM alone or with ML302F (1:8)
Procedure: as §2

P. aeruginosa 8 (13) = experiment: as above; type: cell-based; conditions: Pseudomonas aeruginosa
Procedure: as §2

P. aeruginosa GR58 = experiment: as above; type: cell-based; conditions: Pseudomonas aeruginosa; P. aeruginosa GR58 (VIM-2); MEM alone or with ML302F (1:8)
Procedure: as §2

P. aeruginosa 9 (13) = experiment: as above; type: cell-based; conditions: Pseudomonas aeruginosa
Procedure: as §2

P. aeruginosa 50 = experiment: as above; type: cell-based; conditions: Pseudomonas aeruginosa; P. aeruginosa 50 (VIM-2); MEM alone or with ML302F (1:8)
Procedure: as §2

P. aeruginosa 47 = experiment: as above; type: cell-based; conditions: Pseudomonas aeruginosa; P. aeruginosa 47 (VIM-2); MEM alone or with ML302F (1:8)
Procedure: as §2

P. aeruginosa GR57 [2] = experiment: as above; type: cell-based; conditions: Pseudomonas aeruginosa; P. aeruginosa GR57 (VIM-2); MEM alone or with ML302F (1:8)
Procedure: as §2

P. aeruginosa 15 (14) = experiment: as above; type: cell-based; conditions: Pseudomonas aeruginosa; P. aeruginosa 15 (14) (VIM-2); MEM alone or with ML302F (1:8)
Procedure: as §2

P. aeruginosa GR64 = experiment: as above; type: cell-based; conditions: Pseudomonas aeruginosa; P. aeruginosa GR64 (VIM-2); MEM alone or with ML302F (1:8)
Procedure: as §2

P. aeruginosa 14 (14) = experiment: as above; type: cell-based; conditions: Pseudomonas aeruginosa; P. aeruginosa 14 (14) (VIM-2); MEM alone or with ML302F (1:8)
Procedure: as §2

P. aeruginosa 11 (14) = experiment: as above; type: cell-based; conditions: Pseudomonas aeruginosa
Procedure: as §2

P. aeruginosa 27 (14) = experiment: as above; type: cell-based; conditions: Pseudomonas aeruginosa; P. aeruginosa 27 (14) (VIM-2); MEM alone or with ML302F (1:8)
Procedure: as §2

P. aeruginosa 3 (13) = experiment: as above; type: cell-based; conditions: Pseudomonas aeruginosa; P. aeruginosa 3 (13) (VIM-2); MEM alone or with ML302F (1:8)
Procedure: as §2

C[C@@H](O)[C@H]1C(=O)N2C(C(=O)O)=C(S[C@@H]3CN[C@H](C(=O)N(C)C)C3)[C@H](C)[C@H]12 [Meropenem, meropenem]
69%: % survival of infected larvae (K. pneumoniae KP120)
4 µg/mL: MIC (K. pneumoniae 128)
1 µg/mL: MIC (K. pneumoniae 177)
64 µg/mL: MIC (P. aeruginosa 30) | MIC (P. aeruginosa 16 (14)) | MIC (P. aeruginosa 15 (14)) | MIC (P. aeruginosa 14 (14)) | MIC (P. aeruginosa 27 (14)) | MIC (P. aeruginosa 3 (13))
8 µg/mL: MIC (P. stuartii 70) | MIC (P.. stuartii 67)
32 µg/mL: MIC (E. cloacae 102) | MIC (P. aeruginosa 13 (14)) | MIC (P. aeruginosa GR62) | MIC (P. aeruginosa 11 (13)) | MIC (P. aeruginosa GR58) | MIC (P. aeruginosa 50) | MIC (P. aeruginosa 47) | MIC (P. aeruginosa GR57 [2]) | MIC (P. aeruginosa GR64)
44%: % survival of infected larvae (E. coli EC98)
23%: % survival of infected larvae (P. aeruginosa GR57 [1])
128 µg/mL: MIC (K. pneumoniae GR54) | MIC (P. aeruginosa 6 (14)) | MIC (P. aeruginosa 12 (14)) | MIC (P. aeruginosa 8 (13)) | MIC (P. aeruginosa 9 (13)) | MIC (P. aeruginosa 11 (14))
